In patent US11992473B2, “Compositions and methods for diagnosis and treatment of conditions related to the quality of aging and longevity” (Epitracker, Inc., priority 2018, dated 2024):

Tests used:
Assay type in all cases: cell-based, human
[1] = test system: Peripheral blood mononuclear cells, B cells; experiment: BioMAP Diversity PLUS BT system (T cell dependent B cell activation); settings: for interleukin 17A (IL-17A): human cell system mimicking asthma, autoimmunity and allergies (FIG. 5)
Experimental: (§1) This study examined activities of small molecules discovered in dolphin serum that had protective profiles against diseases of aging which can impact quality of life and longevity. These molecules were tested across 12 human primary cell-based systems as part of DiscoverX's BioMAP Diversity Plus program. These systems are designed to model complex human tissue and disease biology of the vasculature, skin, lung, and inflammatory tissues. Quantitative measurements of biomarker activities across this broad panel, along with comparative analysis of biological activities of known bioactive agents were used to predict and compare the efficacy and function of the four compounds. Compounds were tested at four concentrations (740 nm and 2.2, 6.7 and 20 μM).
(§2) BioMAP panels consist of human primary cell-based systems designed to model different aspects of the human body in an in vitro format. The 12 systems in the Diversity PLUS panel allow test agent characterization in an unbiased way across a broad set of systems modeling various human disease states. BioMAP systems are constructed with one or more primary cell types from healthy human donors, with stimuli (such as cytokines or growth factors) added to capture relevant signaling networks that naturally occur in human tissue or pathological conditions. Vascular biology is modeled in both a Th1 (3C system) and a Th2 (4H system) inflammatory environment, as well as in a Th1 inflammatory state specific to arterial smooth muscle cells (CASM3C system). Additional systems recapitulate aspects of the systemic immune response including monocyte-driven Th1 inflammation (LPS system) or T cell stimulation (SAg system), chronic Th1 inflammation driven by macrophage activation (lMphg system) and the T cell-dependent activation of B cells that occurs in germinal centers (BT system). The BE3C system (Th1) and the BF4T system (Th2) represent airway inflammation of the lung, while the MyoF system models myofibroblast-lung tissue remodeling. Lastly, skin biology is addressed in the KF3CT system modeling Th1 cutaneous inflammation and the HDF3CGF system modeling wound healing.
(§3) Each test agent generates a signature BioMAP profile that is created from the changes in protein biomarker readouts within individual system environments. Biomarker readouts (7-17 per system) are selected for therapeutic and biological relevance, are predictive for disease outcomes or specific drug effects and are validated using agents with known mechanism of action (MoA). Each readout is measured quantitatively by immune-based methods that detect protein (e.g., ELISA) or functional assays that measure proliferation and viability. BioMAP readouts are diverse and include cell surface receptors, cytokines, chemokines, matrix molecules and enzymes.
(§4) The Diversity PLUS panel allows test agent characterization in an unbiased way across a broad set of systems modeling various human disease states. These systems are designed to model complex human tissue and disease biology of the vasculature, skin, lung, and inflammatory tissues.
(§5) BioMAP systems are constructed with one or more primary cell types from healthy human donors, with stimuli (such as cytokines or growth factors) added to capture relevant signaling networks that naturally occur in human tissue or pathological conditions. Vascular biology is modeled in both a Th1 (3C system) and a Th2 (4H system) inflammatory environment, as well as in a Th1 inflammatory state specific to arterial smooth muscle cells (CASM3C system). Additional systems recapitulate aspects of the systemic immune response including monocyte-driven Th1 inflammation (LPS system) or T cell stimulation (SAg system), chronic Th1 inflammation driven by macrophage activation (lMphg system) and the T cell-dependent activation of B cells that occurs in germinal centers (BT system).

[2] = test system: Dermal fibroblasts; experiment: BioMAP Diversity PLUS HDF3CGF system (wound healing and matrix/tissue remodeling); settings: for decorin: fibrosis and chronic inflammation (FIG. 7)
Experimental: as §1, §2, §3, §4, §5

[3] = test system: Lung fibroblasts; experiment: BioMAP Diversity PLUS MyoF system (myofibroblast differentiation and tissue remodeling)
Experimental: as §1, §2
as §3, with “enzymes. In total, the Diversity PLUS panel contains 148 biomarker readouts that capture biological changes that occur within the physiological context of the particular BioMAP system. Specific BioMAP activities have been correlated to in vivo biology, and multiparameter BioMAP profiles have been used to distinguish compounds based on MoA and target selectivity across diverse physiological systems.” for “enzymes.”
(§6) The Diversity PLUS panel allows test agent characterization in an unbiased way across a broad set of systems modeling various human disease states. These systems are designed to model complex human tissue and disease biology of the vasculature, skin, lung, and inflammatory tissues. Quantitative measurements of 148 biomarker activities across this broad panel, along with comparative analysis of biological activities from known bioactive agents, were used to predict and compare the efficacy and function of each selected compound at four concentrations (740 nm and 2.2, 6.7 and 20 μM). […]

[4] = test system: Macrophages, venular endothelial cells; experiment: BioMAP Diversity PLUS lMphg system (Th1 type chronic inflammation, macrophage activation); settings: /Mphg system; 2.2 μM
Experimental: as §1, §2
as §3, with “enzymes. In total, the Diversity PLUS panel contains 148 biomarker readouts that capture biological changes that occur within the physiological context of the particular BioMAP system. Specific BioMAP activities have been correlated to in vivo biology, and multiparameter BioMAP profiles have been used to distinguish compounds based on MoA and target selectivity across diverse physiological systems.” for “enzymes.”
as §6

[5] = test system: Venular endothelial cells, peripheral blood mononuclear cells; experiment: BioMAP Diversity PLUS SAg system (T cell stimulation, Th1 type chronic inflammation); settings: for T cell proliferation: concentrations ranging from 740 nm to 6.7 μM (FIG. 2); for Significant log10 reduction compared to nontreated controls: T cell proliferation / Significant log10 reduction compared to nontreated controls: Monocyte chemoattractant protein 1 (MCP-1): SAg system
Experimental: as §1, §2
as §3, with “enzymes. In total, the Diversity PLUS panel contains 148 biomarker readouts that capture biological changes that occur within the physiological context of the particular BioMAP system. Specific BioMAP activities have been correlated to in vivo biology, and multiparameter BioMAP profiles have been used to distinguish compounds based on MoA and target selectivity across diverse physiological systems.” for “enzymes.”
as §6

[6] = test system: Venular endothelial cells, peripheral blood mononuclear cells; experiment: BioMAP Diversity PLUS LPS system (Th1 type chronic inflammation, monocyte activation); settings: human cell system mimicking T-cell and monocyte driven chronic inflammation and cardiovascular diseases (FIG. 4)
Experimental: as §1, §2, §3, §4, §5

[7] = human cell system mimicking wound healing, remodeling
[8] = human cell system mimicking T-cell driven chronic inflammation and autoimmune diseases

CCCCCCC=CCCCCCCCCC(=O)O [Compound 10-heptadecanoate]
Significant log10 reduction compared to nontreated controls: Secreted interleukin 2 (IL-2) ([1]; BT system, 6.7 μM): −0.11 log10

CC(=O)NCCc1c[nH]cn1 [N-acetylhistamine]
Significant log10 reduction compared to nontreated controls: Vascular cell adhesion molecule 1 (VCAM-1) ([2]; HDF3CGF system, 6.7 μM): −0.08 log10 | Significant log10 reduction compared to nontreated controls: Collagen III ([2]; HDF3CGF system, 20.0 μM): −0.13 log10 | Significant log10 reduction compared to nontreated controls: Vascular cell adhesion molecule 1 (VCAM-1) ([2]; HDF3CGF system, 20.0 μM): −0.15 log10 | Significant log10 reduction compared to nontreated controls: B cell proliferation ([1]; BT system, 2.2 μM): −0.12 log10 | Significant log10 reduction compared to nontreated controls: B cell proliferation ([1]; BT system, 6.7 μM): −0.06 log10 | Significant log10 reduction compared to nontreated controls: B cell proliferation ([1]; BT system, 20.0 μM): −0.08 log10 | Significant log10 reduction compared to nontreated controls: Secreted interleukin 17A (IL-17A) ([1]; BT system, 20.0 μM): −0.19 log10 | Significant log10 reduction compared to nontreated controls: Secreted interleukin 17F (IL-17F) ([1]; BT system, 20.0 μM): −0.42 log10 | Significant log10 reduction compared to nontreated controls: Alpha smooth muscle actin (αSMA) ([3]; 0.7 μM): −0.05 log10 | Significant log10 reduction compared to nontreated controls: Alpha smooth muscle actin (αSMA) ([3]; 2.2 μM): −0.06 log10 | Significant log10 reduction compared to nontreated controls: Alpha smooth muscle actin (αSMA) ([3]; 6.7 μM): −0.11 log10 | Significant log10 reduction compared to nontreated controls: Alpha smooth muscle actin (αSMA) ([3]; 20.0 μM): −0.09 log10 | Significant log10 reduction compared to nontreated controls: Monocyte chemoattractant protein 1 (MCP-1) [4]: −0.26 log10

O=C(O)[C@@H]1C[C@@H](O)CN1 (relative stereo) [Trans-4-hydroxyproline]
decorin [2, 7]: inhibitory activity | interleukin 17A (IL-17A) [1]: lowered | T cell proliferation [5, 8]: decreased

O=C(O)Cc1c[nH]cn1 [4-imidazoleacetate]
Significant log10 reduction compared to nontreated controls: Secreted interleukin 17F (IL-17F) ([1]; BT system, 0.7 μM): −0.16 log10 | Significant log10 reduction compared to nontreated controls: T cell proliferation ([5]; 2.2 μM): −0.11 log10 | Significant log10 reduction compared to nontreated controls: T cell proliferation ([5]; 6.7 μM): −0.09 log10 | Significant log10 reduction compared to nontreated controls: T cell proliferation ([5]; 20.0 μM): −0.09 log10 | T cell proliferation [5, 8]: decreased

NC(=O)NCCCC[C@H](N)C(=O)O [Homocitrulline]
interleukin 8 (IL-8) ([2]; human cell system mimicking wound healing, remodeling, fibrosis and chronic inflammation (FIG. 8)): inhibitory activity | secretion of prostaglandin E2 (PGE2) [6]: lowered | T cell proliferation [5, 8]: decreased

N[C@@H](CCC(=O)NCC(=O)O)C(=O)O [Gamma-glutamylglycine]
decorin [2, 7]: inhibitory activity | Significant log10 reduction compared to nontreated controls: Secreted interleukin 17A ([1]; BT system, 0.7 μM): −0.17 log10 | Significant log10 reduction compared to nontreated controls: Secreted interleukin 17A (IL-17A) ([1]; BT system, 2.2 μM): −0.17 log10 | interleukin 17A (IL-17A) [1]: lowered | secretion of prostaglandin E2 (PGE2) [6]: lowered | Significant log10 reduction compared to nontreated controls: T cell proliferation ([5]; 6.7 μM): −0.11 log10 | Significant log10 reduction compared to nontreated controls: T cell proliferation ([5]; 20.0 μM): −0.07 log10 | CD40 ([5]; human cell system mimicking T-cell driven chronic inflammation and autoimmune diseases, 740 nm, 2.2 μM, and 6.7 μM (FIG. 3)): lowered | T cell proliferation [5, 8]: decreased

CCCCCCCCCCCCCCC(=O)O [Pentadecanoate (C15:0), pentadecanoate]
Significant log10 reduction compared to nontreated controls: 72-hour fibroblast proliferation ([2]; HDF3CGF system, 6.7 μM): −0.67 log10 | Significant log10 reduction compared to nontreated controls: Collagen I ([2]; HDF3CGF system, 6.7 μM): −0.07 log10 | Significant log10 reduction compared to nontreated controls: Plasminogen activation inhibitor 1 (PAI-1) ([2]; HDF3CGF system, 6.7 μM): −0.08 log10 | Significant log10 reduction compared to nontreated controls: 72-hour fibroblast proliferation ([2]; HDF3CGF system, 20.0 μM): −1.1 log10 | Significant log10 reduction compared to nontreated controls: Collagen I ([2]; HDF3CGF system, 20.0 μM): −0.13 log10 | Significant log10 reduction compared to nontreated controls: Collagen III ([2]; HDF3CGF system, 20.0 μM): −0.13 log10 | Significant log10 reduction compared to nontreated controls: Interferon gamma-induced protein 10 (IP-10)/CXCL10 ([2]; HDF3CGF system, 20.0 μM): −0.14 log10 | Significant log10 reduction compared to nontreated controls: Interferon-inducible T cell alpha chemoattractant (I-TAC)/CXCL11 ([2]; HDF3CGF system, 20.0 μM): −0.17 log10 | Significant log10 reduction compared to nontreated controls: Monokine induced by gamma interferon (MIG)/CXCL9 ([2]; HDF3CGF system, 20.0 μM): −0.10 log10 | Significant log10 reduction compared to nontreated controls: Plasminogen activation inhibitor 1 (PAI-1) ([2]; HDF3CGF system, 20.0 μM): −0.13 log10 | Significant log10 reduction compared to nontreated controls: Vascular cell adhesion molecule 1 (VCAM-1) ([2]; HDF3CGF system, 20.0 μM): −0.28 log10 | Significant log10 reduction compared to nontreated controls: Secreted interleukin 17A (IL-17A) ([1]; BT system, 2.2 μM): −0.25 log10 | Significant log10 reduction compared to nontreated controls: Secreted interleukin 17F (IL-17F) ([1]; BT system, 2.2 μM): −0.16 log10 | Significant log10 reduction compared to nontreated controls: Secreted immunoglobulin G (IgG) ([1]; BT system, 6.7 μM): −0.17 log10 | Significant log10 reduction compared to nontreated controls: Secreted immunoglobulin G (IgG) ([1]; BT system, 20.0 μM): −0.55 log10 | Significant log10 reduction compared to nontreated controls: Secreted interleukin 6 (IL-6) ([1]; BT system, 20.0 μM): −0.29 log10 | Significant log10 reduction compared to nontreated controls: Secreted interleukin 17A (IL-17A) ([1]; BT system, 20.0 μM): −0.29 log10 | Significant log10 reduction compared to nontreated controls: Secreted interleukin 17F (IL-17F) ([1]; BT system, 20.0 μM): −0.18 log10 | Significant log10 reduction compared to nontreated controls: Monocyte chemoattractant protein 1 (MCP-1) ([5]; 6.7 μM): −0.18 log10 | Significant log10 reduction compared to nontreated controls: Monocyte chemoattractant protein 1 (MCP-1) ([5]; 20.0 μM): −0.15 log10
